Consider three molecules from ChEMBL document CHEMBL1201862, “PubChem BioAssay data set” (2004).

Some test systems named below: IGROV-1; Malme-3M; OVCAR-5; SF-295; DMS-114; HCT-15; SF-268; NCI-H23; ACHN; CCRF-CEM; PC-3; BT-549; HL-60; NCI-H522; LXFL 529; SR; T47D; HCC 2998; EKVX; UACC-257.
Common to all, as to assay: inhibition of tumour cell growth, NCI panel, 48 h

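Five compound concentrations were applied to cells in 96-well plates for 48 hours; endpoints were derived by simple linear interpolation of the resulting dose-response curve. At the GI50, growth is halved.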 Calls of active or inactive are those of the source. Rule as the data show it: active = GI50 up to about 1.1 µM and inactive = higher. Where only a bound is given, the exact number is not on record here.

As for `Nc1ncnc2c1ncn2CC(O)C(=O)O` (stereo not given), the GI50 in the assay on IGROV-1 is > 100000 nM (inactive); with Malme-3M it was > 100000 nM (inactive); in the assay with OVCAR-5, > 100000 nM (inactive); in the assay on SF-295, > 100000 nM (inactive); with DMS-114, > 100000 nM (inactive); in the assay with HCT-15, > 100000 nM. The GI50 with SF-268, with NCI-H23, in the assay on ACHN, in the assay on CCRF-CEM, with PC-3 and in the assay on BT-549 was > 100000 nM (inactive) in each case. Besides, the GI50 with HL-60, with NCI-H522, in the assay with LXFL 529, in the assay with SR, in the assay with T47D and with HCC 2998 was > 100000 nM (inactive) each time. The GI50 in the assay on EKVX and with UACC-257 was > 100000 nM (inactive) each time.

For `CCCCCCCCCCCCCC(=O)O[C@H]1CC[C@H](NC(=O)[C@H](OC)[C@H](O)[C@@H](O)[C@H](O)/C=C/C(C)C)C(=O)NC1` [BENGAMIDE A], the GI50 in the assay on IGROV-1 is 7.08 nM (active); in the assay with Malme-3M it was 14.8 nM (active); in the assay on OVCAR-5, 38100 nM (inactive); with SF-295, 92.7 nM (active); in the assay with DMS-114, 5.12 nM (active); in the assay on HCT-15 it was 299 nM. For the same molecule, the GI50 with SF-268 was 8.93 nM (active); with NCI-H23, 11.3 nM (active); in the assay on ACHN it was 59.2 nM (active); in the assay on CCRF-CEM, 5.12 nM (active); in the assay with PC-3, 147 nM (active); in the assay with BT-549, 953 nM (active). For the same molecule, the GI50 in the assay on HL-60 is 5.12 nM (active); in the assay on NCI-H522, 11 nM (active); in the assay on LXFL 529, 3.86 nM (active); in the assay on SR it was 31.6 nM (active); with T47D it was 10 nM (active); with HCC 2998, 117 nM (active). The GI50 is 234 nM (active) in the assay on EKVX and 20.5 nM (active) in the assay on UACC-257.

On to `C=CC(=O)N1C/C(=C\c2ccccc2)C(=O)/C(=C/c2ccccc2)C1`, for which the GI50 in the assay with IGROV-1 was 1970 nM (inactive); in the assay with Malme-3M, 2150 nM (inactive); in the assay with OVCAR-5, 2490 nM (inactive); with SF-295, 2100 nM (inactive); in the assay with DMS-114 it was 1010 nM (active); in the assay on HCT-15 it was 1180 nM. The GI50 in the assay on SF-268 was 1970 nM (inactive); with NCI-H23, 2140 nM (inactive); in the assay on ACHN, 1830 nM (inactive); with CCRF-CEM it was 351 nM (active); in the assay on PC-3, 1690 nM (inactive); in the assay on BT-549, 1710 nM (inactive). Further, the GI50 in the assay with HL-60 is 710 nM (active); in the assay with NCI-H522 it was 1240 nM (inactive); in the assay with LXFL 529, 1330 nM (inactive); with SR it was 476 nM (active); in the assay with T47D it was 3750 nM (inactive); with HCC 2998, 1950 nM (inactive). For the same molecule, the GI50 is 3470 nM (inactive) with EKVX and 1920 nM (inactive) with UACC-257.
